Molecules are shown by their SMILES.

For one series, the target named is hERG potassium channels (Homo sapiens, UniProt Q12809). On the procedure: CHO cells stably expressing hERG potassium channels obtained from Aviva BioSciences were used for this test.
Visual check for precipitation was conducted before testing.
The hERG QPatchHTX assay was conducted at room temperature. The whole-cell protocols, voltage protocols and application protocols were established with QPatch Assay Software 5.0 (Sophion).

The test system of a further series is K-562 cells. Nature of the series: K-562 cytotoxicity assay, CellTiter 96 Aqueous One, 72 hours. As to conditions: for K-562 IC50: 72 hours, CellTiter 96, class relative to nilotinib.
Series [1] deals with K562 lymphoblast cell line. Description: K562 cytotoxicity assay at RBC, Cell Titer-Glo 2.0, 72 hours. It is filed as cell-based. As to conditions: class relative to nilotinib. On the procedure:
In this Example, experiments conducted at RBC to assess the cytotoxicity of nilotinib and compounds 14, 17, 19, 21, and 22 (i.e., test compounds) are described. All of the test compounds were kept between 4° C. to 8° C. in solid form or as solution in DMSO.
The cell line K562 was obtained from the ATCC. Test compounds were dissolved in DMSO (1 mM stock). Cell Titer-Glo® 2.0 Luminescent cell viability assay reagent was obtained from Promega. K562 lymphoblast cell line was cultured in Iscove's Modified Dulbecco's medium supplemented with 10% FBS. 100 μg/ml penicillin and 100 μg/ml streptomycin were added to all culture media. Cultures were maintained at 37° C. in a humidified atmosphere of 5% CO2 and 95% air. Test compounds in DMSO were added in a source plate. 25 nL of test compounds was delivered from the source plate to each well of the 384-well cell culture plates by Echo 550. 25 μl of culture medium containing 1000 cells for each cell line was added to the wells of the cell culture plates. Cells were incubated with test compounds at 37° C., 5% CO2 for 72 hours. 25 μl of Cell Titer Glo 2.0 reagent was added to each well. The contents were mixed on an orbital shaker for 2 minutes and incubated at room temperature for 10 minutes to stabilize luminescent signal. Luminescence was recorded by Envision 2104 Multilabel Reader (PerkinElmer). The number of viable cells in culture was determined based on quantization of the ATP present in each culture well. The IC50 values were calculated and the IC50 curves were plotted using the GraphPad Prism 4 program based on a sigmoidal dose-response equation.

The next series has as its target T1, cKit[h] (Homo sapiens, UniProt P10721).
T1 construct: purchased Merck-Milliore (contract assay service)
Description: cKit kinase assay at Merck-Milliore (standard protocol). The format is biochemical. On the procedure:
(§1) The assays were performed at Merck-Milliore, using their standard assay protocols

The target of the next series is T2, cSRC (Homo sapiens, UniProt P12931).
T2 construct: purchased Merck-Milliore (contract assay service)
Nature of the series: cSRC kinase assay at Merck-Milliore (standard protocol). It is filed as biochemical. As for the experimental part:
as §1

Another series addresses T3, Flt1[h] (Homo sapiens, UniProt P17948).
T3 construct: purchased Merck-Milliore (contract assay service)
Description: Flt1 kinase assay at Merck-Milliore (standard protocol). The format is biochemical. On the procedure: as §1

A further series concerns the target PDGFRα[h] (Homo sapiens, UniProt P16234). Nature of the series: biochemical. On the procedure: as §1

Turning to `Cc1ccc(C(=O)Nc2cc(-n3cnc(COC(=O)C4CC4)c3)cc(C(F)(F)F)c2)cc1Nc1nccc(-c2cccnc2)n1` [Compound 11], at hERG potassium channels, the “hERG inhibition compared with Nilotinib” value is reported as “less inhibiting to hERG than Nilotinib”. Besides, the “K-562 IC50” value in the series on K-562 cells is listed as “++ (IC50 more than 25% smaller than IC50 for nilotinib)”.
`Cc1ccc(C(=O)Nc2cc(-n3cnc(CNCC(=O)O)c3)cc(C(F)(F)F)c2)cc1Nc1nccc(-c2cccnc2)n1` [Compound 21]: the “K-562 IC50 (RBC)” value in series [1] was “− (IC50 more than 25% great than IC50 for nilotinib)”.
`Cc1ccc(C(=O)Nc2cc(-n3cnc(COC(N)=O)c3)cc(C(F)(F)F)c2)cc1Nc1nccc(-c2cccnc2)n1` [Compound 12]: the “hERG inhibition compared with Nilotinib” value on hERG potassium channels was “less inhibiting to hERG than Nilotinib”. Also, the “K-562 IC50” value in the series with K-562 cells is listed as “+++ (IC50 more than 75% great than IC50 for nilotinib)”. Also, the IC50 in the series on K-562 cells (Homo sapiens, K562, 72 h, read-out: K-562 IC50) is < 1 nM.
`Cc1ccc(C(=O)Nc2cc(-n3cnc(CO)c3)cc(C(F)(F)F)c2)cc1Nc1nccc(-c2cccnc2)n1` [Compound 2, N-[3-[4-(hydroxymethyl)imidazol-1-yl]-5-(trifluoromethyl)phenyl]-4-methyl-3-[[4-(3-pyridyl)pyrimidin-2-yl]amino]benzamide]: the IC50 against cKit[h] was 1300 nM; on cSRC it was 1300 nM; against Flt1[h], 1100 nM; at PDGFRα[h], 1900 nM. In addition, the “hERG IC50 (μM)” value at hERG potassium channels is “+”. The “hERG inhibition compared with Nilotinib” value on hERG potassium channels was “less inhibiting to hERG than Nilotinib”. The “K-562 IC50” value in the series on K-562 cells was “++ (IC50 more than 25% smaller than IC50 for nilotinib)”.
For `Cc1cn(-c2cc(NC(=O)c3ccc(C)c(Nc4nccc(-c5cccnc5)n4)c3)cc(C(F)(F)F)c2)cn1` [Compound 1, 4-methyl-N-[3-(4-methyl-1H-imidazol-1-yl)-5-(trifluoromethyl)phenyl]-3-[(4-pyridin-3-ylpyrimidin-2-yl)amino]benzamide, reference compound], in series [1], the “K-562 IC50 (RBC)” value is on record as “+”. The “K-562 IC50” value in the series on K-562 cells is recorded as “+”.
Turning to `COC(=O)CNCc1cn(-c2cc(NC(=O)c3ccc(C)c(Nc4nccc(-c5cccnc5)n4)c3)cc(C(F)(F)F)c2)cn1` [Compound 22], in series [1], the “K-562 IC50 (RBC)” value is “− (IC50 more than 25% great than IC50 for nilotinib)”.

Source of the values: US10045987B2, “Imidazoyl anilide derivatives and methods of use” (Codexis, Inc., priority 2014, dated 2018).
